Measurements taken from US20230218765A1, “SMALL MOLECULE DEGRADERS OF SHP2 PROTEIN” (THE REGENTS OF THE UNIVERSITY OF MICHIGAN, priority 2020, published 2023).
Where a SMILES comes first, the peptide text is derived from it. The star is where a group is joined. Cbz = O=C(OCc1ccccc1)*

Tests used:
SHP2 [1] = molecular target: T1, SHP2 (Homo sapiens, UniProt Q06124); assay: SHP2 degradation by Western blot in KYSE520 cells; conditions: for block of SHP2-D26-induced degradation of SHP2 protein: KYSE520, pre-treatment 1 h (VHL 10 µM, compound 4 10 µM, MLN4924 0.5 µM, MG132 3 µm), then SHP2-D26 0.1 µM
T1 sequence (Q06124 1-593): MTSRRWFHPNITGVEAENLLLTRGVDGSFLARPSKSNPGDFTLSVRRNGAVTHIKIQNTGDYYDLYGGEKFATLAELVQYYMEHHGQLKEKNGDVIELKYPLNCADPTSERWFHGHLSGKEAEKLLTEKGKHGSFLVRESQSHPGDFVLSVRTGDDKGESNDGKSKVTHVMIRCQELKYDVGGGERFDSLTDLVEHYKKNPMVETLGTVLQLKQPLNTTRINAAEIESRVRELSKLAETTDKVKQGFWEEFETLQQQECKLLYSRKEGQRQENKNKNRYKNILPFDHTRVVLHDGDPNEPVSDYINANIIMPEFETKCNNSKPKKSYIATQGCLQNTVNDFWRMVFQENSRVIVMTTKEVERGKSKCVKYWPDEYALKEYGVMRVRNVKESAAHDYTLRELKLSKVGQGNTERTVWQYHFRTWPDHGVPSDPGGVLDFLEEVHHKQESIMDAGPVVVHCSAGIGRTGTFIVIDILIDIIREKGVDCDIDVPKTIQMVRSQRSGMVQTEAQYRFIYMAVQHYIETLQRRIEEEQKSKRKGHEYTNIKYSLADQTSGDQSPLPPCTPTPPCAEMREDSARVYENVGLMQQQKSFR
Protocol: (§1) Western blotting and quantification were performed with regular western blot method and band quantification was performed using ImageJ. Treated cells were lysed by RIPA buffer supplemented with protease and phosphatase inhibitors. […] The net protein bands and loading controls are calculated by deducting the background from the inverted band value. The final relative quantification values are the ratio of the net band to net loading control.
(§2) The treated cells were harvested and the level of SHP2 protein was examined by blot analysis. GAPDH was used as a loading control.
(§3) SHP2 protein was examined by Western blotting and the protein level was quantified by densitometry and normalized to the corresponding density of the GAPDH protein. […] Cells were treated with 100 nM of SHP2-D26 for different times. SHP2 protein was examined by Western blotting and the GAPDH protein was used as the loading control.

SHP2 [2] = molecular target: T1, SHP2; assay: SHP2 degradation by Western blot in MV4;11 cells; conditions: 0.1 µM
Protocol: as §1, §2, §3

Compound	% of SHP2 protein degradation in KYSE520 cell line (SHP2 [1]; 0.1 µM) [%]	% of SHP2 protein degradation in KYSE520 cell line (SHP2 [1]; 1 µM) [%]	% of SHP2 protein degradation in MV4;11 cell line (SHP2 [2]) [%]	block of SHP2-D26-induced degradation of SHP2 protein (SHP2 [1])
Cc1ncsc1-c1ccc([C@@H](C)NC(=O)[C@H]2C[C@H](O)CN2C(=O)[C@H](NC(=O)CCCNC(=O)CC(=O)Nc2cccc(Sc3ncc(N4CCC(C)(N)CC4)nc3N)c2Cl)C(C)(C)C)cc1 [Compound 8]	9	7	–	–
Cc1ncsc1-c1ccc([C@@H](C)NC(=O)[C@H]2C[C@H](O)CN2C(=O)[C@H](NC(=O)CCCCNC(=O)CC(=O)Nc2cccc(Sc3ncc(N4CCC(C)(N)CC4)nc3N)c2Cl)C(C)(C)C)cc1 [Compound 9]	13	6	–	–
Cc1ncsc1-c1ccc([C@@H](C)NC(=O)[C@H]2C[C@H](O)CN2C(=O)[C@H](NC(=O)CCCCCNC(=O)CC(=O)Nc2cccc(Sc3ncc(N4CCC(C)(N)CC4)nc3N)c2Cl)C(C)(C)C)cc1 [Compound 10]	0	3	–	–
Cc1ncsc1-c1ccc([C@@H](C)NC(=O)[C@H]2C[C@H](O)CN2C(=O)[C@H](NC(=O)CCCCCCNC(=O)CC(=O)Nc2cccc(Sc3ncc(N4CCC(C)(N)CC4)nc3N)c2Cl)C(C)(C)C)cc1 [Compound 11]	0	0	–	–
Cc1ncsc1-c1ccc([C@@H](C)NC(=O)[C@H]2C[C@H](O)CN2C(=O)[C@H](NC(=O)CCCCCCCNC(=O)CC(=O)Nc2cccc(Sc3ncc(N4CCC(C)(N)CC4)nc3N)c2Cl)C(C)(C)C)cc1 [Compound 12]	20	14	–	–
Cc1ncsc1-c1ccc([C@@H](C)NC(=O)[C@H]2C[C@H](O)CN2C(=O)[C@H](NC(=O)CCCCCCCCNC(=O)CC(=O)Nc2cccc(Sc3ncc(N4CCC(C)(N)CC4)nc3N)c2Cl)C(C)(C)C)cc1 [Compound 13]	81	80	–	–
Cc1ncsc1-c1ccc([C@@H](C)NC(=O)[C@H]2C[C@H](O)CN2C(=O)[C@H](NC(=O)CCCCCCCCCNC(=O)CC(=O)Nc2cccc(Sc3ncc(N4CCC(C)(N)CC4)nc3N)c2Cl)C(C)(C)C)cc1 [Compound 14]	>95	92	–	–
Cc1ncsc1-c1ccc([C@@H](C)NC(=O)[C@H]2C[C@H](O)CN2C(=O)[C@H](NC(=O)CCCCCCCCCCNC(=O)CC(=O)Nc2cccc(Sc3ncc(N4CCC(C)(N)CC4)nc3N)c2Cl)C(C)(C)C)cc1 [Compound 15]	>95	>95	–	–
Cc1ncsc1-c1ccc([C@@H](C)NC(=O)[C@H]2C[C@H](O)CN2C(=O)[C@H](NC(=O)CCCCCCCCCCCNC(=O)CC(=O)Nc2cccc(Sc3ncc(N4CCC(C)(N)CC4)nc3N)c2Cl)C(C)(C)C)cc1 [Compound 16]	>95	93	–	–
Cc1ncsc1-c1ccc([C@@H](C)NC(=O)[C@H]2C[C@H](O)CN2C(=O)[C@H](NC(=O)CCCCCCCCCCNC(=O)CCC(=O)Nc2cccc(Sc3ncc(N4CCC(C)(N)CC4)nc3N)c2Cl)C(C)(C)C)cc1 [Compound 17]	>95	>95	–	–
Cc1ncsc1-c1ccc([C@@H](C)NC(=O)[C@H]2C[C@H](O)CN2C(=O)[C@H](NC(=O)CCCCCCCCCCCNC(=O)CCC(=O)Nc2cccc(Sc3ncc(N4CCC(C)(N)CC4)nc3N)c2Cl)C(C)(C)C)cc1 [Compound 18]	>95	>95	–	–
Cc1ncsc1-c1ccc([C@@H](C)NC(=O)[C@H]2C[C@H](O)CN2C(=O)[C@H](NC(=O)CCCCCCCCCCCNC(=O)CCCC(=O)Nc2cccc(Sc3ncc(N4CCC(C)(N)CC4)nc3N)c2Cl)C(C)(C)C)cc1 [Compound 19]	>95	>95	–	–
Cc1ncsc1-c1ccc([C@@H](C)NC(=O)[C@H]2C[C@H](O)CN2C(=O)[C@H](NC(=O)COCCOCCOCCNC(=O)CCC(=O)Nc2cccc(Sc3ncc(N4CCC(C)(N)CC4)nc3N)c2Cl)C(C)(C)C)cc1 [Compound 20]	80	>95	>95	–
Cc1ncsc1-c1ccc([C@@H](C)NC(=O)[C@H]2C[C@H](O)CN2C(=O)[C@H](NC(=O)CCOCCOCCOCCNC(=O)CCC(=O)Nc2cccc(Sc3ncc(N4CCC(C)(N)CC4)nc3N)c2Cl)C(C)(C)C)cc1 [Compound 21]	32	87	85	–
Cc1ncsc1-c1ccc([C@@H](C)NC(=O)[C@H]2C[C@H](O)CN2C(=O)[C@H](NC(=O)COCCOCCOCCOCCNC(=O)CCC(=O)Nc2cccc(Sc3ncc(N4CCC(C)(N)CC4)nc3N)c2Cl)C(C)(C)C)cc1 [Compound 22]	53	>95	95	–
Cc1ncsc1-c1ccc([C@@H](C)NC(=O)[C@H]2C[C@H](O)CN2C(=O)[C@H](NC(=O)CCCCCCCCCCCN2CCN(CC(=O)Nc3cccc(Sc4ncc(N5CCC(C)(N)CC5)nc4N)c3Cl)CC2)C(C)(C)C)cc1 [Compound 24]	80	>95	6	–
Cc1ncsc1-c1ccc([C@@H](C)NC(=O)[C@H]2C[C@H](O)CN2C(=O)[C@H](NC(=O)CCCCCCCCCCCCCCC(=O)Nc2cccc(Sc3ncc(N4CCC(C)(N)CC4)nc3N)c2Cl)C(C)(C)C)cc1 [Compound 25]	62	90	8	–
Cc1ncsc1-c1ccc([C@@H](C)NC(=O)[C@H]2C[C@H](O)CN2C(=O)[C@H](NC(=O)CCCCCCCCCN2CCN(C(=O)CCC(=O)Nc3cccc(Sc4ncc(N5CCC(C)(N)CC5)nc4N)c3Cl)CC2)C(C)(C)C)cc1 [Compound 27]	>95	>95	>95	–
Cc1ncsc1-c1ccc([C@@H](C)NC(=O)[C@H]2C[C@H](O)CN2C(=O)[C@H](NC(=O)CCCCCCCOc2ccc(NC(=O)CCC(=O)Nc3cccc(Sc4ncc(N5CCC(C)(N)CC5)nc4N)c3Cl)cc2)C(C)(C)C)cc1 [Compound 28]	>95	>95	90	–
Cc1ncsc1-c1ccc([C@@H](C)NC(=O)[C@H]2C[C@H](O)CN2C(=O)[C@H](NC(=O)CCCCCCCCCCCNC(=O)CC(=O)Nc2cccc(Sc3ncc(N4CCC(C)(CN)CC4)nc3N)c2Cl)C(C)(C)C)cc1 [Compound 40]	>95	>95	>95	–
Cc1ncsc1-c1ccc([C@H](C)NC(=O)[C@@H]2C[C@@H](O)CN2C(=O)[C@@H](NC(=O)CCOCCOCCOCCNC(=O)CC(=O)Nc2cccc(Sc3ncc(N4CCC5(CCC[C@@H]5N)CC4)nc3N)c2Cl)C(C)(C)C)cc1 [Compound 42]	>95	>95	94	–
CC(C)C[C@@H](C=O)NC(=O)[C@H](CC(C)C)NC(=O)[C@H](CC(C)C)NC(=O)OCc1ccccc1 [MG132, reference compound] (Cbz-Leu-Leu-Leu-aldehyde)	–	–	–	effectively block degradation of SHP2 protein
NS(=O)(=O)OC[C@@H]1C[C@@H](n2ccc3c(N[C@H]4CCc5ccccc54)ncnc32)C[C@@H]1O [MLN4924, reference compound]	–	–	–	effectively block degradation of SHP2 protein
